The values below come from patent US20250281391A1, “EFFERVESCENT COMPOSITION AND METHOD FOR DETERMINING BITTERNESS PERCEPTION” (BAYER HEALTHCARE LLC, priority 2024, published 2025).

This series can be described thus: Electric potential experiment (degree of carbonation, carbon dioxide electrode) as surrogate of bitterness perception. It counts as physicochemical. The note with it: Sol. Nos. 26-28, acetaminophen as the API, 100 mL deionized water. How it is done:
Formulations comprising the effervescent combination (sodium bicarbonate and citric acid) and molecules/compositions that impart a bitter taste (such as APIs or compositions comprising APIs) can be prepared according to Tables 1-5 below. Exemplary formulations according to the disclosure were made according to the following general procedure. 100 mL of deionized water from MILLI-Q® Q-POD® water purifier (having about 1.9 ppb total organic content) was weighed out in an appropriately sized glass beaker. The ingredients mentioned in Tables 1-5 below were weighed out and added to the glass beaker containing deionized water, and then the mixture was stirred for 15 minutes until the blend is homogenous. Each ingredient was sieved through a mesh 18 strainer ([…] strainer size means particles won't be greater than 0.0394 inches (1000 microns or 1 mm) in diameter) to remove clumps before weighing. The METTLER TOLEDO® XP6035S was used to measure ingredient weight, but any suitable weighing balance may be used.
Various combinations of bitter tasting molecules/compositions (e.g., APIs or compositions comprising APIs) along with the effervescent combination were prepared as solutions (see Sol. Nos. 1-36 in FIG. 1) per the general procedure described in Example 1. For the electric potential experiment, after the solutions were stirred, a carbon dioxide electrode (which measures the degree of carbonation) was dipped in the glass beaker to assess degree of carbonation (unit is electric potential in mV). The THERMO SCIENTIFIC™ ORION™ VSTAR PRO™ 9502BNWP carbon dioxide electrode was used to measure electrical potential (mV). The METTLER TOLEDO SEVENCOMPACT™ PH meter PD-470 was used to measure the pH. […] The carbon dioxide electrode was rinsed with deionized water and cleaned with a lint free tissue in between samples.

`CC(=O)Nc1ccc(O)cc1` [acetaminophen]: the average electric potential runs as follows: (including 0.300 g of the effervescent combination (low end)) 22.24 mV; (including 0.400 g of the effervescent combination) 30.4 mV; (including 0.500 g (high end) of the effervescent combination) 35.67 mV.
